Here are results for 23 molecules from patent US12662491B2 (Redona Therapeutics, Inc., priority 2020, dated 2026).

The term pIC50 denotes −log10 of the IC50, conventionally taken in molar units.

For the test, the target named is T1, Zcchc11 enzyme (Homo sapiens, UniProt Q5TAX3).
T1 construct: made in house; host or cells: HEK293 cells (Zcchc11); E. coli Rosetta II (LIN28A)
T1 sequence (Q5TAX3 212-1420): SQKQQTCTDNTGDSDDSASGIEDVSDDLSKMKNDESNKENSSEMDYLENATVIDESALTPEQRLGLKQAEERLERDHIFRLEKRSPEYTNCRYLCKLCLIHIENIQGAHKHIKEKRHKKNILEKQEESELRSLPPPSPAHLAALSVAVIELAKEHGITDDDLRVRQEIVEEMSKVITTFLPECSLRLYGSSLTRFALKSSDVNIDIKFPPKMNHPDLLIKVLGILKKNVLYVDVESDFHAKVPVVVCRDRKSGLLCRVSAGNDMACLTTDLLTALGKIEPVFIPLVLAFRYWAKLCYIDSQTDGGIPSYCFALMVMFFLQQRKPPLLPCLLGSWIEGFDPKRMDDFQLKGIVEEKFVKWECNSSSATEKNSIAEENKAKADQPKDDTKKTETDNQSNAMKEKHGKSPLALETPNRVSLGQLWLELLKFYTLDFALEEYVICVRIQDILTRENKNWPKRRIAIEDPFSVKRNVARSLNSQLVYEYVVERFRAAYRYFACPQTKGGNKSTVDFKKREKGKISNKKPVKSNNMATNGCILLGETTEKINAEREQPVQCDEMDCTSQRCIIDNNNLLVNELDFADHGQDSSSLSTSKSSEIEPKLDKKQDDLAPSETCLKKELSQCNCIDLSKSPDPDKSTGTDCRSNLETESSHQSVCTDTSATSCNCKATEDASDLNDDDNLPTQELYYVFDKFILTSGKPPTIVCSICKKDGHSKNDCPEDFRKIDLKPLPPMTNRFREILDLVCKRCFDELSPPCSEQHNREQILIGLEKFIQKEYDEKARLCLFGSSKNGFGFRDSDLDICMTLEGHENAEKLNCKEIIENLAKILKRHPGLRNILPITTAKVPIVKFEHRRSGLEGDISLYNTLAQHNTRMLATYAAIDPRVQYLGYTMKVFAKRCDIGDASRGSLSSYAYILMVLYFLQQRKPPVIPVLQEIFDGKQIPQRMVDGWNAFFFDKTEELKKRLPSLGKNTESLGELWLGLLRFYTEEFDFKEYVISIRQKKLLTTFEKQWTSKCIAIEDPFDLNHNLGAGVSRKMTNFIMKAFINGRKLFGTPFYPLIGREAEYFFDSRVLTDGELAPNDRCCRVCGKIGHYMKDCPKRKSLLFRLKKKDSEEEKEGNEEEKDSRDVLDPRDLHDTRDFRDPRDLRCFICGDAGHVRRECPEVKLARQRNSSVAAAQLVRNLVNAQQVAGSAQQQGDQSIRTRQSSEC
The experiment in a line: TUTase assay (Zcchc11 assay, Lin28a-dependent polyuridylation of pre-let-7). It counts as biochemical. Particulars: read-out: Potency Lin28a-dep Z11 IC50. The method in brief:
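Readout: time-dependent quench of 5′-fluorescein pre-let-7 (2 nM) as 3′-rhodamine A20 probe anneals to poly(U) tails. Enzyme 0.2 nM Zcchc11 (res. 212-1420), LIN28A 10 nM, UTP 5 uM; pH 7.3 HEPES, 150 mM KCl, 5 mM MgCl2, RT. 4-parameter IC50; 100% = DMSO, 0% = no UTP.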

[1] abbreviates: Lin28a-dependent Zcchc11 (Z11) TUTase activity.

pIC50: −log10 of the molar value. Read-outs that look alike come from different tables or passages of the source.

Consider `C[C@H]1CCN(c2cc3c(cc2Cl)c(=O)c(C(=O)O)cn3-c2ccc(N3CC(N(C)C)C3)nc2)[C@H]1COc1ncccc1Cl` (racemic) [Example 44, rac-6-chloro-7-((2R,3S)-2-(((3-chloropyridin-2-yl)oxy)methyl)-3-methylpyrrolidin-1-yl)-1-(6-(3-(dimethylamino)azetidin-1-yl)pyridin-3-yl)-4-oxo-1,4-dihydroquinoline-3-carboxylic acid], for which the pIC50 (LIN28A 10 nM, Zcchc11 0.2 nM, 5′-fluorescein pre-let-7 miRNA 2 nM, UTP 5 uM, room temperature, 30 minutes pre-incubation) is at least 6.00.
With `CN(C)C1CN(c2ccc(-n3cc(C(=O)O)c(=O)c4cc(F)c(N5CC(c6cccnc6)C[C@@H]5COc5ncccc5Cl)cc43)cn2)C1` (single isomer, unassigned) [Compound 328], under setting [1], the pIC50 was at least 6.00.
On the same count and under the same terms, the value for `CN(C)C1CN(c2ccc(-n3cc(C(=O)O)c(=O)c4cc(F)c(N5C[C@@H](c6cccnc6)C[C@@H]5COc5ncccc5Cl)cc43)cn2)C1` (single isomer, unassigned) [Compound 329] was at least 6.00; that for `O=C(O)c1cn(C2CC2)c2c(F)c(N3CCC[C@@H]3COc3ccccn3)c(F)cc2c1=O` [Compound 79, (R)-1-cyclopropyl-6,8-difluoro-4-oxo-7-(2-((pyridin-2-yloxy)methyl)pyrrolidin-1-yl)-1,4-dihydro-quinoline-3-carboxylic acid] was 5.00 to 6.00.
`O=C(O)c1cn(-c2ccc(O)cc2F)c2c(F)c(N3CCC[C@@H]3COc3ccccn3)c(F)cc2c1=O` [Compound 80, (R)-6,8-difluoro-1-(2-fluoro-4-hydroxy-phenyl)-4-oxo-7-(2-((pyridin-2-yloxy)methyl)pyrrolidin-1-yl)-1,4-dihydro-quinoline-3-carboxylic acid]: the pIC50 under setting [1] is 5.00 to 6.00.
On the same count and under the same terms, the value for `O=C(O)c1cn(C2CC2)c2cc(N3CCC[C@H]3COc3ccccn3)c(F)cc2c1=O` [Compound 81, (S)-1-cyclopropyl-6-fluoro-4-oxo-7-(2-((pyridin-2-yloxy)methyl)pyrrolidin-1-yl)-1,4-dihydro-quinoline-3-carboxylic acid] was 4.30 to 5.00; that for `O=C(O)c1cn(-c2ccc(O)cc2F)c2c(F)c(N3CCC[C@H]3COc3ccccn3)c(F)cc2c1=O` [Compound 82, (S)-6,8-difluoro-1-(2-fluoro-4-hydroxy-phenyl)-4-oxo-7-(2-((pyridin-2-yloxy)methyl)pyrrolidin-1-yl)-1,4-dihydro-quinoline-3-carboxylic acid] was 4.30 to 5.00; that for `O=C(O)c1cn(-c2ccc(O)cc2F)c2cc(N3CCC[C@@H]3COc3ccccn3)c(F)cc2c1=O` [Compound 83, (R)-6-fluoro-1-(2-fluoro-4-hydroxy-phenyl)-4-oxo-7-(2-((pyridin-2-yloxy)methyl)pyrrolidin-1-yl)-1,4-dihydro-quinoline-3-carboxylic acid] was at least 6.00.
On the same count and under the same terms, the figure for `O=C(O)c1cn(-c2ccc(F)cc2F)c2cc(N3CCC[C@@H]3COc3ccccn3)c(F)cc2c1=O` [Compound 84, (R)-1-(2,4-difluorophenyl)-6-fluoro-4-oxo-7-(2-((pyridin-2-yloxy)methyl)pyrrolidin-1-yl)-1,4-dihydro-quinoline-3-carboxylic acid] is at least 6.00.
On the same count and under the same terms, the figure for `O=C(O)c1cn(-c2ccccc2)c2cc(N3CCC[C@@H]3COc3ccccn3)c(F)cc2c1=O` [Compound 85, (R)-6-fluoro-4-oxo-1-phenyl-7-(2-((pyridin-2-yloxy)methyl)pyrrolidin-1-yl)-1,4-dihydro-quinoline-3-carboxylic acid] is at least 6.00.
On to `O=C(O)c1cn(-c2ccccc2)c2c(F)c(N3CCC[C@@H]3COc3ccccn3)c(F)cc2c1=O` [Compound 86, (R)-6,8-difluoro-4-oxo-1-phenyl-7-(2-((pyridin-2-yloxy)methyl)pyrrolidin-1-yl)-1,4-dihydro-quinoline-3-carboxylic acid], for which the pIC50 under setting [1] is at least 6.00.
For `O=C(O)c1cn(C2CC2)c2cc(N3CCC[C@@H]3COc3ccccn3)c(F)cc2c1=O` [Compound 87, (R)-1-cyclopropyl-6-fluoro-4-oxo-7-(2-((pyridin-2-yloxy)methyl)pyrrolidin-1-yl)-1,4-dihydro-quinoline-3-carboxylic acid], the pIC50 under setting [1] is 5.00 to 6.00.
Still for that read-out and setting: the figure for `O=C(O)c1cn(-c2ncc(O)cn2)c2cc(N3CCC[C@@H]3COc3ccccn3)c(F)cc2c1=O` [Compound 88, (R)-6-fluoro-1-(5-hydroxy-pyrimidin-2-yl)-4-oxo-7-(2-((pyridin-2-yloxy)methyl)pyrrolidin-1-yl)-1,4-dihydro-quinoline-3-carboxylic acid] is 5.00 to 6.00.
Same read-out and setting: the value for `O=C(O)c1cn(-c2ccc(O)cc2F)c2cc(N3CCC[C@@H]3COc3cnccn3)c(F)cc2c1=O` [Compound 89, (R)-6-fluoro-1-(2-fluoro-4-hydroxy-phenyl)-4-oxo-7-(2-((pyrazin-2-yloxy)methyl)pyrrolidin-1-yl)-1,4-dihydro-quinoline-3-carboxylic acid] was 4.30 to 5.00; that for `O=C(O)c1cn(-c2ccc(O)cc2F)c2cc(N3CCC[C@@H]3COc3ccccc3)c(F)cc2c1=O` [Compound 90, (R)-6-fluoro-1-(2-fluoro-4-hydroxy-phenyl)-4-oxo-7-(2-(phenoxy-methyl)pyrrolidin-1-yl)-1,4-dihydro-quinoline-3-carboxylic acid] was under 4.30; that for `O=C(O)c1cn(C2CC2)c2c(Cl)c(N3CCC[C@@H]3COc3ccccn3)c(F)cc2c1=O` [Compound 91, (R)-8-chloro-1-cyclopropyl-6-fluoro-4-oxo-7-(2-((pyridin-2-yloxy)methyl)pyrrolidin-1-yl)-1,4-dihydro-quinoline-3-carboxylic acid] was 4.30 to 5.00.
Still for that read-out and setting: the figure for `Cc1cccc(OC[C@H]2CCCN2c2cc3c(cc2F)c(=O)c(C(=O)O)cn3-c2ccccc2)n1` [Compound 92, (R)-6-fluoro-7-(2-(((6-methyl-pyridin-2-yl)oxy)methyl)pyrrolidin-1-yl)-4-oxo-1-phenyl-1,4-dihydro-quinoline-3-carboxylic acid] is at least 6.00.
As for `Cc1ccc(OC[C@H]2CCCN2c2cc3c(cc2F)c(=O)c(C(=O)O)cn3-c2ccccc2)nc1` [Compound 93, (R)-6-fluoro-7-(2-(((5-methyl-pyridin-2-yl)oxy)methyl)pyrrolidin-1-yl)-4-oxo-1-phenyl-1,4-dihydro-quinoline-3-carboxylic acid], the pIC50 under setting [1] was at least 6.00.
On the same count and under the same terms, the value for `Cc1ccnc(OC[C@H]2CCCN2c2cc3c(cc2F)c(=O)c(C(=O)O)cn3-c2ccccc2)c1` [Compound 94, (R)-6-fluoro-7-(2-(((4-methyl-pyridin-2-yl)oxy)methyl)pyrrolidin-1-yl)-4-oxo-1-phenyl-1,4-dihydro-quinoline-3-carboxylic acid] was at least 6.00; that for `O=C(O)c1cn(-c2ccc(O)cc2F)c2cc(N3CCC[C@@H]3COc3ccccn3)c(Cl)cc2c1=O` [Compound 95, (R)-6-chloro-1-(2-fluoro-4-hydroxy-phenyl)-4-oxo-7-(2-((pyridin-2-yloxy)methyl)pyrrolidin-1-yl)-1,4-dihydro-quinoline-3-carboxylic acid] was at least 6.00; that for `O=C(O)c1cn(C2CC2)c2cc(N3CCC[C@@H]3COc3ccccc3)c(F)cc2c1=O` [Compound 96, (R)-1-cyclopropyl-6-fluoro-4-oxo-7-(2-(phenoxy-methyl)pyrrolidin-1-yl)-1,4-dihydro-quinoline-3-carboxylic acid] was under 4.30.
As for `O=C(O)c1cn(-c2ccccc2)c2cc(N3CCC[C@@H]3COc3ncccc3Cl)c(F)cc2c1=O` [Compound 97, (R)-7-(2-(((3-chloro-pyridin-2-yl)oxy)methyl)pyrrolidin-1-yl)-6-fluoro-4-oxo-1-phenyl-1,4-dihydro-quinoline-3-carboxylic acid], the pIC50 under setting [1] is at least 6.00.
The same measure, in the same setting: the figure for `O=C(O)c1cn(-c2ccccc2)c2cc(N3CCC[C@@H]3COc3ncccc3F)c(F)cc2c1=O` [Compound 98, (R)-6-fluoro-7-(2-(((3-fluoropyridin-2-yl)oxy)methyl)pyrrolidin-1-yl)-4-oxo-1-phenyl-1,4-dihydro-quinoline-3-carboxylic acid] is at least 6.00.
